US6245765A, “Mesylate dihydrate salts of 5-(2-(4-(1,2-benzisothiazol-3-yl)-1-piperazinyl)-ethyl)-6-chloro-1,3-dihyd ro-2(1H)-indol-2-one (=ziprasidone), its preparation and its use as dopamine D2 antagonist” (Pfizer Inc, priority 1999, dated 2001)
Where a name gives a salt, the structure may show the parent alone.

What was measured:
[1] = Aqueous solubility (solubility in water); format: physicochemical
[2] = as stated in U.S. Pat. No. 5,312,925; cited from earlier work

| aqueous solubility (in words) ([1]; qualitative statement, dihydrates compared with ziprasidone hydrochloride monohydrate) | SOLUBILITY IN WATER ([1]; aqueous solubility of ziprasidone mesylate polymorphs, water) [mg/mL] | Structure (SMILES) | hygroscopic stability (in words) [2] |
| --- | --- | --- | --- |
| low aqueous solubility |  | O=C1Cc2cc(CCN3CCN(c4nsc5ccccc45)CC3)c(Cl)cc2N1 [ziprasidone hydrochloride monohydrate] | substantially hygroscopically stable |
|  | 1.10 | O=C1Cc2cc(CCN3CCN(c4nsc5ccccc45)CC3)c(Cl)cc2N1 [dihydrate (needle), 5-[2-[4-(1,2-benzisothiazol-3-yl)-1-piperazinyl]ethyl]-6-chloro-1,3-dihydro-2H-indol-2-one Methanesulfonate Dihydrate (Needle Crystals)] |  |
